How the values were obtained:
[1] = biological target: T1, JAK1 (Homo sapiens, UniProt P23458); experiment: Z'-LYTE kinase assay JAK1; format: biochemical
T1 construct: 5 μl of catalytic domain recombinant Kinase enzyme+Tyr peptide substrate (Invitrogen, CA); purchased Invitrogen
Method in brief: (§1)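 Catalytic-domain recombinant kinase was incubated with Tyr6 FRET peptide, ATP and compound (1% DMSO final) for 1 h at room temperature. Protease development followed for 1 h, cleaving only non-phosphorylated peptide. Inhibition of phosphorylation was read as coumarin/fluorescein FRET fluorescence.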

[2] = biological target: T2, full length active recombinant SYK enzyme (Homo sapiens, UniProt P43405); experiment: Inhibition of Syk tyrosine phosphorylation activity (LANCE TR-FRET); format: biochemical
T2 construct: full length active recombinant SYK enzyme (Millipore, Calif.); purchased Millipore
Description: This example illustrates methods for evaluating the compounds of the invention, along with results obtained for such assays. The in vitro and in vivo human Syk activities of the inventive compounds can be determined by various procedures known in the art, such as a test for their ability to inhibit the activity of human plasma Syk. […] The IC50 value is the concentration (in nM) of the compound required to provide 50% inhibition of human Syk proteolytic activity.
An in vitro assay for detecting and measuring inhibition activity against Syk is as follows:
Inhibition of Syk Tyrosine Phosphorylation Activity
Potency of candidate molecules for inhibiting Syk tyrosine phosphorylation activity is assessed by measuring the ability of a test compound to inhibit Syk-mediated tyrosine phosphorylation of a Syk-specific substrate.
SYK tyrosine phosphorylation activity is measured using the LANCE™ Technology developed by Perkin Elmer Life and Analytical Sciences (Boston, Mass.). LANCE™ refers to homogeneous time resolved fluorometry applications using techniques such as time-resolved fluorescence resonance energy transfer assay (TR-FRET) (see generally for procedures in Perkin Elmer Application Note-How to Optimize a Tyrosine Kinase Assay Using Time Resolved Fluorescence-Based LANCE Detection, wwww.perkinelmer.com/lifesciences). The assay principle involves detection of a phosphorylated substrate using energy transfer from a phosphospecific europium-labeled antibody to streptavidin-allophycocyanin as an acceptor.
To test the ability of candidate molecules to inhibit SYK tyrosine phosphorylation activity, molecules are reconstituted in 30% DMSO and serially diluted 1:3 with the final dilution containing DMSO in the absence of the candidate molecule. The final DMSO concentration in the assay is 3%. Kinase assays are performed as a two part reaction. The first reaction is a kinase reaction and which comprises of a candidate molecule, full length active recombinant SYK enzyme (Millipore, Calif.) and biotin-labeled SYK-specific substrate biotin-[…]-OH. The second reaction involves termination of the kinase reaction and the simultaneous addition of the detection reagents-europium-labeled anti-phosphotyrosine reagent (Eu-W1024-PY100, Perkin Elmer, Boston, Mass.) and Streptavidin-Allophycocyanin detection reagent (SA-APC, Prozyme, CA). The kinase reaction is performed in a black U-bottom 96-well microtitre plate. The final reaction volume is 50 μL and contains a final concentration of 1 nM active SYK enzyme, 550 nM SYK-substrate, and 100 nM ATP diluted in a buffer containing 50 mM Tris pH 7.5, 5 mM MgCl2, and 1 mM DTT. The reaction is allowed to proceed for 1 hour at room temperature. The quench buffer contains 100 mM Tris pH 7.5, 300 mM NaCl2, 20 mM EDTA, 0.02% Brij35, and 0.5% BSA. The detection reagents are added to the reaction mixture at the following dilutions-1:500 for Eu-W1024-PY100 and 1:250 for SA-APC. The kinase reaction is terminated by the addition of 50 μL quench buffer containing the detection reagents. […] Detection of the phosphorlated substrate in the absence and presence of inhibitors is measured in the TR-FRET instrument, Analyst HT (Molecular Probes, Sunnyvale, Calif.) and the condition for measurements are set up using CriterionHost Release 2.0 (Molecular Probes, Sunnyvale, Calif.). […] Inhibition of SYK-tyrosine kinase activity is calculated as the maximum response observed in the presence of inhibitor, compared to that in the absence of inhibitor. […]

[3] = biological target: T3, JAK3 (Homo sapiens, UniProt P52333); experiment: Z'-LYTE kinase assay JAK3; format: biochemical
T3 construct: 5 μl of catalytic domain recombinant Kinase enzyme+Tyr peptide substrate (Invitrogen, CA); purchased Invitrogen
Method in brief: as §1

[4] = biological target: T4, JAK2 (Homo sapiens, UniProt O60674); experiment: Z'-LYTE kinase assay JAK2; format: biochemical
T4 construct: 5 μl of catalytic domain recombinant Kinase enzyme+Tyr peptide substrate (Invitrogen, CA); purchased Invitrogen
Method in brief: as §1

[5] = system: markers of allogeneic response (interferon gamma); settings: kidney allograft patients; cited from earlier work
[6] = system: JAK1/3 signaling to STAT5 in primary T cells; experiment: IL2 stimulation of JAK1/3 signaling to STAT5 in primary T cells (pSTAT5 Y694, FACS); format: cell-based; settings: T-cell; for inhibition at 0.2 µM: 0.2 uM compound, read-out: IL-2/STAT5 Percent Inhibition at 0.2 uM; for inhibition at 1 µM: 1.0 μM compound, read-out: IL-2/STAT5 Percent Inhibition at 1.0 μM
Procedure: IL2 Stimulation of JAK1/3 Signaling to STAT5 in Primary T Cells:
The effect of JAK inhibitors on cytokine signaling pathways utilizing JAK3 was determined using an IL2 stimulation assay. IL2 engages a receptor complex that contains the IL2 receptor alpha and beta subunits, and the common gamma chain, to initiate activation of JAK1 and JAK3 leading to phosphorylation of STAT5 at tyrosine position 694. Lymphocytes are isolated from heparinized whole blood over a ficoll gradient, then resuspended in tissue culture media containing 10% fetal calf serum at 10×10̂6 cells/ml. 100 μl aliquots are pre-treated for 1 hour with various concentrations of compound, and then stimulated for 12 minutes with 100 U/ml IL2. The signaling reaction is terminated by fixing in 2% paraformaldehyde for 10 minutes at room temperature. Fixed cells are then washed and permeablized by suspension in 50% methanol (in PBS) at −80° C. Following overnight incubation at 4° C., cells are washed and resuspended in PBS containing 0.5% bovine serum albumin containing CD3-APC and pSTAT5 Y694-PE conjugated antibodies. After 1 hour incubation, cells are washed and the extent of STAT5 phosphorlyation in T cells is measured by FACS analysis.

[7] = biological target: T5, TYK2 (Homo sapiens, UniProt P29597); experiment: Z'-LYTE kinase assay TYK2; format: biochemical
T5 construct: 5 μl of catalytic domain recombinant Kinase enzyme+Tyr peptide substrate (Invitrogen, CA); purchased Invitrogen
T5 sequence (P29597 897-1176 limits assumed): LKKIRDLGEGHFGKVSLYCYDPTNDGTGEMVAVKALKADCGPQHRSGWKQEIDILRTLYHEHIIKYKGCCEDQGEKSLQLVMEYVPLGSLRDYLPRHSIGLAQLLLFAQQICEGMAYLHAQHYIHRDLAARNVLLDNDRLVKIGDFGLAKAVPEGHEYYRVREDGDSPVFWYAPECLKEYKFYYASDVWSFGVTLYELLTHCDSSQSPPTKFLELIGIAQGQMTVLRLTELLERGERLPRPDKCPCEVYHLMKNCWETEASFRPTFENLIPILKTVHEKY
Method in brief: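 Recombinant catalytic-domain TYK2 with Tyr6 peptide in Z′-LYTE FRET format, 1% DMSO final, kinase reaction 1 h at room temperature, then protease development 1 h. Fluorescence read at 445/520 nm (excitation 400 nm), percent phosphorylation vs no-inhibitor control, IC50 from 4-parameter logistic fit.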

[8] = system: JAK1/3 signaling to STAT6 in Ramos B cells; experiment: IL4 stimulation of JAK1/3 signaling to STAT6 in Ramos B cells (pSTAT6 Y641, FACS); format: cell-based; settings: Homo sapiens; for inhibition at 0.2 µM: 0.2 uM compound, read-out: IL-4/STAT6 in Ramos Percent Inhibition at 0.2 uM; for inhibition at 1 µM: 1.0 uM compound, read-out: IL-4/STAT6 in Ramos Percent Inhibition at 1.0 uM
Method in brief: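 Ramos cells in 10% FCS medium were pre-treated 1 h with compound, stimulated 15 min with 15 ng IL4, fixed in 2% paraformaldehyde and methanol-permeabilized. Intracellular phospho-STAT6 Y641 was stained with PE-conjugated antibody and quantified by flow cytometry.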

T3 sequence (P52333 822-1111 limits assumed): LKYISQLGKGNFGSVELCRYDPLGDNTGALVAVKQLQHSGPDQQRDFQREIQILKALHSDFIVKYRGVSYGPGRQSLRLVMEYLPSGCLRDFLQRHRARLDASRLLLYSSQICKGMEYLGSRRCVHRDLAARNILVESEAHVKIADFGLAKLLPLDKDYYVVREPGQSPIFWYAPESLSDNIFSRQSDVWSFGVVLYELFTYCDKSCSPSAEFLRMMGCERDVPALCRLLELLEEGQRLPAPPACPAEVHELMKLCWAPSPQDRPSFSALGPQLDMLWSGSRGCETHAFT
T4 sequence (O60674 849-1124 limits assumed): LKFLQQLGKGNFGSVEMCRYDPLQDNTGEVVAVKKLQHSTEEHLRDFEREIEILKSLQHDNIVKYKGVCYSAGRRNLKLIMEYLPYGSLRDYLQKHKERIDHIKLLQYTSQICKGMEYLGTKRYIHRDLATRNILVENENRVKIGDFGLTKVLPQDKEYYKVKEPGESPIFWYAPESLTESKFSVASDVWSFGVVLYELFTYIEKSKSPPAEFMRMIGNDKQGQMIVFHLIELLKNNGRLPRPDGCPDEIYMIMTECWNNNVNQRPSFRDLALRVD
T1 sequence (P23458 875-1153 limits assumed): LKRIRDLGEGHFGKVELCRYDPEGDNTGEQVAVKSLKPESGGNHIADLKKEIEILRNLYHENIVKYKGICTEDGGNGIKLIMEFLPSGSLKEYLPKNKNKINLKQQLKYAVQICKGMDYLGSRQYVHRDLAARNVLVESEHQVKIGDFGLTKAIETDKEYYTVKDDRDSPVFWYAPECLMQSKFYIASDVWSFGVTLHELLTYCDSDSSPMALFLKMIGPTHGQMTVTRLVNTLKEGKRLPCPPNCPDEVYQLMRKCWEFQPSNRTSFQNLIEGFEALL

| SMILES | IC50 [1] [nM] | IC50 [2] [nM] | IC50 [3] [nM] | IC50 [4] [nM] | IC50 [7] [nM] | markers of allogeneic response (interferon gamma) [5] | inhibition at 0.2 µM [6] [%] | inhibition at 1 µM [6] [%] | inhibition at 0.2 µM [8] [%] | inhibition at 1 µM [8] [%] |
| --- | --- | --- | --- | --- | --- | --- | --- | --- | --- | --- |
| NC(=O)c1cnc(Nc2cccc(OCCN3CCOCC3)c2)cc1N[C@H](CO)c1ccccc1 [Example 230] | > 1000 | > 1000 | 1 to 10 | 100 to 1000 | – | – | – | – | – | – |
| C[C@H]1CCN(C(=O)CC#N)C[C@H]1N(C)c1ncnc2[nH]ccc12 [CP-690,550] | – | – | – | – | – | can be reduced | – | – | – | – |
| NC(=O)c1cnc(Nc2ccc(OCCN3CCOCC3)cc2)cc1NCc1ccccc1 [Example 429, 4-(benzylamino)-6-(4-(2-morpholinoethoxyl)phenylamino)nicotinamide] | 100 to 1000 | – | 1 to 10 | 100 to 1000 | > 1000 | – | 60 | 77 | 19 | 33 |
| NC(=O)c1cnc(Nc2ccc(C(=O)N3CCC3)cc2)cc1NCc1c(F)cccc1F [Example 105, 6-(4-(azetidine-1-carbonyl)phenylamino)-4-(2,6-difluorobenzylamino)nicotinamide] | 10 to 100 | – | 1 to 10 | 10 to 100 | 10 to 100 | – | 72 | 99 | 53 | 88 |
| NC(=O)c1cnc(Nc2cccc(C(=O)N3CCCCC3)c2)cc1NCc1ccccc1 [Example 249, 4-(benzylamino)-6-(3-(piperidine-1-carbonyl)phenylamino)nicotinamide] | 100 to 1000 | – | 10 to 100 | 100 to 1000 | > 1000 | – | 12 | 29 | 23 | 32 |

The next lines start with results.

| IC50 [1] [nM] | IC50 [2] [nM] | IC50 [3] [nM] | IC50 [4] [nM] | IC50 [7] [nM] | SMILES | markers of allogeneic response (interferon gamma) [5] | inhibition at 0.2 µM [6] [%] | inhibition at 1 µM [6] [%] | inhibition at 0.2 µM [8] [%] | inhibition at 1 µM [8] [%] |
| --- | --- | --- | --- | --- | --- | --- | --- | --- | --- | --- |
| > 1000 | > 1000 | 1 to 10 | 100 to 1000 | – | CC(=O)N1CCN(c2ccc(Nc3cc(N[C@H](CO)c4ccccc4)c(C(N)=O)cn3)cc2)CC1 [Example 231] | – | – | – | – | – |
| 100 to 1000 | > 1000 | 100 to 1000 | 100 to 1000 | – | CC(=O)N1CCN(c2ccc(Nc3ccc(C(N)=O)c(NC4CCC4)n3)cc2)CC1 [Example 1, 6-(4-(4-acetylpiperazin-1-yl)phenylamino)-2-(cyclobutylamino)nicotinamide] | – | – | – | – | – |
| 100 to 1000 | – | 1 to 10 | 100 to 1000 | > 1000 | CC(=O)N1CCN(c2ccc(Nc3cc(N[C@H](C)c4ccccc4)c(C(N)=O)cn3)cc2)CC1 [Example 7, (R)-6-(4-(4-acetylpiperazin-1-yl)phenylamino)-4-(1-phenylethylamino)nicotinamide] | – | 29 | 74 | 10 | 40 |

— US20150353495A1 (PORTOLA PHARMACEUTICALS, INC., priority 2010, published 2015)
